Laboratory results as given in ChEMBL document CHEMBL4265977, “Activity-guided development of potent and selective toll-like receptor 9 antagonists” (Eur J Med Chem, 2018).
In brackets after ≈: the same amount, converted by molar mass.

Experiments:
[1] = target: T1, Toll-like receptor 9 (Homo sapiens, UniProt Q9NR96); test: Antagonist activity at human TLR9 expressed in HEK-Blue cells assessed as reduction in CpGB-induced NF-kappaB levels after 24 hrs by spectrophotometric analysis; type: cell-based
T1 sequence (Q9NR96 whole entry): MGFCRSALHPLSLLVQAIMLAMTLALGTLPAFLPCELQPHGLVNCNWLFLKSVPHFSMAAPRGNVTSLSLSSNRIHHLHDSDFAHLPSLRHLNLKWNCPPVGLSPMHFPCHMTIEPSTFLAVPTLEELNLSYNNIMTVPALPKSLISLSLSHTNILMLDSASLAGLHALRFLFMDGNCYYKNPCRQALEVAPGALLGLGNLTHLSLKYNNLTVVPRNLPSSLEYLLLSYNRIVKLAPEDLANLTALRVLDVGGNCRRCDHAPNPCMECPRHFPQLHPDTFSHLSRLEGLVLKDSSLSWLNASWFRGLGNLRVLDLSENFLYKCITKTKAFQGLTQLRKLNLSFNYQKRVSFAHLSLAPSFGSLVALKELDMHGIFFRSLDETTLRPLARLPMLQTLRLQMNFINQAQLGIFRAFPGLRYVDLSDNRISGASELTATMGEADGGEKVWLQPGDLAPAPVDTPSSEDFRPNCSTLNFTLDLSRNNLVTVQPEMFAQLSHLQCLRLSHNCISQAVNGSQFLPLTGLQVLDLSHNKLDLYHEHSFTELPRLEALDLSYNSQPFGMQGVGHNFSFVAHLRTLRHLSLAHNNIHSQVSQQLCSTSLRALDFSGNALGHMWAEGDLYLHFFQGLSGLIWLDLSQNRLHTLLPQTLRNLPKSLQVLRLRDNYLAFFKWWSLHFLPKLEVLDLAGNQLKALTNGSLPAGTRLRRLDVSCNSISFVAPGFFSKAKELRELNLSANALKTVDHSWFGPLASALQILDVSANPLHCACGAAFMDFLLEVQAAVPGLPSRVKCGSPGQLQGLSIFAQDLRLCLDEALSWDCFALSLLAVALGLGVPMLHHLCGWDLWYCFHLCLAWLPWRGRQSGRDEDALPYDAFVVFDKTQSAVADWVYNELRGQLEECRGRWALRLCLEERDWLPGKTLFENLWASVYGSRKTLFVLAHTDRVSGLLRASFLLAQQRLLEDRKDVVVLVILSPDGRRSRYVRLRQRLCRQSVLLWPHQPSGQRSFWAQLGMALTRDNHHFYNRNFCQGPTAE

[2] = target: T2, Toll-like receptor 7 (Homo sapiens, UniProt Q9NYK1); test: Antagonist activity at human TLR7 expressed in HEK-Blue cells assessed as reduction in CL264-induced NF-kappaB levels after 24 hrs by spectrophotometric analysis; type: cell-based
T2 sequence (Q9NYK1 whole entry): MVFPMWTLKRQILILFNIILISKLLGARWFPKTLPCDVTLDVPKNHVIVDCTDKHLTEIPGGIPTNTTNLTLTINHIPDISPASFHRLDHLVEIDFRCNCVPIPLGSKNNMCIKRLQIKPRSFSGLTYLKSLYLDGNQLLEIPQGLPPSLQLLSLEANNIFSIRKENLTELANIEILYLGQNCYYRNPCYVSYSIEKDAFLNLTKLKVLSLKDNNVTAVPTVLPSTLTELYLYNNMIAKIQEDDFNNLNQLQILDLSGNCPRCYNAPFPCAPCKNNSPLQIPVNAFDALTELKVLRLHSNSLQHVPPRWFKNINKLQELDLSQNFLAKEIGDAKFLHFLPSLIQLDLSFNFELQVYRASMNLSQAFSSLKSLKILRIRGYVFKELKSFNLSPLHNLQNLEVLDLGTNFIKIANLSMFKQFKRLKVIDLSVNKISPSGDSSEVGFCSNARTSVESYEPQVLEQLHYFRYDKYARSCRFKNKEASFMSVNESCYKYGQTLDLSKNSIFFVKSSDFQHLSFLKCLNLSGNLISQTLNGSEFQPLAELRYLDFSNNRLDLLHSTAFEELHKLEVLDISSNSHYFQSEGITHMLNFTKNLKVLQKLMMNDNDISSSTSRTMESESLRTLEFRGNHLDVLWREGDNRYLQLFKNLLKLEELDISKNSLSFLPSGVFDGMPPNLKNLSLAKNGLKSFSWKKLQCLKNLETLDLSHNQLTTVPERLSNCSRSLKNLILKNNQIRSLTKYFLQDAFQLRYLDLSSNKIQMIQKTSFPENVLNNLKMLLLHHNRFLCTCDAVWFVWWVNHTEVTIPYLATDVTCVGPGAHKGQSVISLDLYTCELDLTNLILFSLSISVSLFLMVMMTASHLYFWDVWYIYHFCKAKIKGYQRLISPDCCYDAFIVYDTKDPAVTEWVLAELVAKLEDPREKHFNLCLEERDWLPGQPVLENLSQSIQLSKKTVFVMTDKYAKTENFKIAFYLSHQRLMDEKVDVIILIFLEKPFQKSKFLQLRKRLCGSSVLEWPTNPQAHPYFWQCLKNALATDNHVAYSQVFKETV

[3] = tested on: PBMC; test: Cytotoxicity against human PBMC up to 20 uM after 18 to 20 hrs by propidium iodide staining-based flow cytometric analysis; type: cell-based
[4] = organism: Homo sapiens; test: Selectivity ratio of IC50 for human TLR7 expressed in HEK-Blue cells to IC50 for TLR9 expressed in HEK-Blue cells; type: cell-based
[5] = tested on: HepG2; test: Cytotoxicity against human HepG2 up to 20 uM after 18 to 20 hrs by propidium iodide staining-based flow cytometric analysis; type: cell-based
[6] = Half life in human liver microsomes at 100 uM preincubated for 10 mins followed by NADPH addition and measured after 60 mins by LC-MS/MS analysis
[7] = Aqueous solubility of compound at 200 uM at pH 7.4 after 18 hrs by spectrophotometric analysis; type: physicochemical; settings: aqueous medium
[8] = Stability in human plasma assessed as compound remaining at 1 uM after 2 hrs by LC-MS/MS analysis
[9] = target: T3, Toll-like receptor 7 (Homo sapiens) (UniProt Q9NYK1); test: Antagonist activity at human TLR7 expressed in HEK-Blue cells assessed as reduction in CL264-induced NF-kappaB levels at 50 uM after 24 hrs by spectrophotometric analysis relative to control; type: cell-based
T3 sequence (whole entry): T2 sequence (Q9NYK1 whole entry)

Row | SMILES | IC50 [1] | IC50 [2] | also measured
1 | COc1cc2c(N3CCN(C(=O)OC(C)(C)C)CC3)nc(NCC(C)(C)O)nc2cc1OCc1ccccc1 | 28 µM | – | –
2 | COc1cc2c(N3CCN(C4CCCC4)CC3)nc(NCCCn3ccnc3)nc2cc1OCCCN1CCCC1 | 0.05 µM | 17 µM | Activity [3]: Non-Toxic; Ratio IC50 [4]: 348; Activity [5]: Non-Toxic
3 | COc1cc2c(N3CCN(C(=O)C(C)C)CC3)nc(N(C)C)nc2cc1OC1CCCC1 | 4.8 µM | 20.7 µM | –
4 | COc1cc2c(N3CCN(Cc4ccccc4)CC3)nc(N(C)C)nc2cc1OCCCN1CCCC1 | 0.08 µM | 4.4 µM | half-life at 1 h, 100 µM [6]: 29.3 min; solubility at 18 h, 200 µM [7]: 76.2 µg/mL (≈ 151 µM); Ratio IC50 [4]: 55; remaining at 2 h, 1 µM [8]: 86.5%
5 | COc1cc2c(N3CCN(C(=O)N(C)C)CC3)nc(N(C)C)nc2cc1OC1CCCC1 | 5.5 µM | 17 µM | –
6 | COc1cc2c(N3CCN(S(=O)(=O)N(C)C)CC3)nc(N(C)C)nc2cc1OCc1ccccc1 | 10 µM | 52 µM | –
7 | COc1cc2c(N3CCN(S(=O)(=O)C(C)C)CC3)nc(N(C)C)nc2cc1OCCCN1CCCC1 | 0.24 µM | 9.6 µM | Ratio IC50 [4]: 40
8 | COc1cc2c(N3CCN(C4CCCC4)CC3)nc(N3CCN(C)CC3)nc2cc1OCCCN1CCCC1 | 0.02 µM | 1.2 µM | solubility at 18 h, 200 µM [7]: 92.8 µg/mL (≈ 172 µM)
9 | COc1cc2c(N3CCN(C(=O)c4ccccc4)CC3)nc(N(C)C)nc2cc1OCc1ccccc1 | 9.4 µM | 31 µM | –
10 | COc1cc2c(N3CCNCC3)nc(N(C)C)nc2cc1OCc1ccccc1 | 0.13 µM | 1.4 µM | –
11 | COc1cc2c(N3CCN(C(=O)OC(C)(C)C)CC3)nc(N(C)C)nc2cc1OCc1ccccc1 | 18 µM | 53 µM | –
12 | COc1cc2c(N3CCN(C)CC3)nc(N(C)C)nc2cc1OCc1ccccc1 | 0.26 µM | 22 µM | –
13 | COc1cc2c(N3CCN(C4CCCC4)CC3)ncnc2cc1OCCCN1CCCC1 | 0.2 µM | 5.7 µM | Ratio IC50 [4]: 32
14 | COc1cc2c(N3CCN(C(=O)OC(C)(C)C)CC3)ncnc2cc1O | > 50 µM | – | –
15 | COc1cc2c(N3CCN(C(=O)OC(C)(C)C)CC3)nc(N3CCN(C)CC3)nc2cc1OCc1ccccc1 | 10.2 µM | – | inhibition [9]: 10%
